Experimental data taken from EP0238060B1, “Cephalosporin derivatives, processes for their preparation and antibacterial agents” (Banyu Pharmaceutical Co., Ltd., priority 1986, dated 1987).
Values after ≈ are worked out from the molar mass of the structure shown. Like-named read-outs stand apart in the source and are kept apart here.

How the values were obtained:
Assay in all cases: In vitro antibacterial activity, agar plate dilution method (MIC)
[1] = test system: Ps.aeruginosa IFO3445; assay type: cell-based; settings: Pseudomonas aeruginosa; Ps.aeruginosa IFO3445; Mueller Hinton agar, inoculum 10⁶ CFU/ml, 37°C, 16 hours; read-out: Minimum Inhibitory Concentration (MIC: µg/ml)
Experimental: (§1) The in vitro antibacterial activities of the compounds of the present invention against various microorganisms, were measured by the following agar plate dilution method. One platinum loopfull of each test microorganism incubated overnight in Mueller Hinton broth, was inoculated to Mueller Hinton agar (inoculum size: l0⁶ CFU/ml). Such culture media containing various antibiotics in various concentrations were prepared. After incubation at 37°C for l6 hours, the minimum inhibitory concentrations (MIC: µg/ml) were measured. As comparative compounds, Cefotaxime, Ceftazidime and the compounds of Reference Examples l to 4 were employed.

[2] = test system: S.marcescens IAM 1184; assay type: cell-based; settings: Serratia marcescens, IAM1184; S.marcescens IAM 1184; Mueller Hinton agar, inoculum 10⁶ CFU/ml, 37°C, 16 hours; read-out: Minimum Inhibitory Concentration (MIC: µg/ml)
Experimental: as §1

[3] = test system: S.aureus JS1; assay type: cell-based; settings: Staphylococcus aureus; S.aureus JS1 (β-Lactamase-producing strain); Mueller Hinton agar, inoculum 10⁶ CFU/ml, 37°C, 16 hours; read-out: Minimum Inhibitory Concentration (MIC: µg/ml)
Experimental: as §1

[4] = test system: E.coli CSH2 (RK1); assay type: cell-based; settings: Escherichia coli, 16 h, read-out: Minimum Inhibitory Concentration (MIC: µg/ml)
Experimental: as §1

[5] = test system: K.oxytoca GN10650; assay type: cell-based; settings: Klebsiella oxytoca, read-out: Minimum Inhibitory Concentration (MIC: µg/ml)
Experimental: as §1

[6] = test system: S.epidermidis IAM12012; assay type: cell-based; settings: Staphylococcus epidermidis; S.epidermidis IAM12012; Mueller Hinton agar, inoculum 10⁶ CFU/ml, 37°C, 16 hours; read-out: Minimum Inhibitory Concentration (MIC: µg/ml)
Experimental: as §1

[7] = test system: M.luteus ATCC9341; assay type: cell-based; settings: Micrococcus luteus; M.luteus ATCC9341; Mueller Hinton agar, inoculum 10⁶ CFU/ml, 37°C, 16 hours; read-out: Minimum Inhibitory Concentration (MIC: µg/ml)
Experimental: as §1

[8] = test system: E.coli CSH(RE45); assay type: cell-based; settings: Escherichia coli, 16 h, read-out: Minimum Inhibitory Concentration (MIC: µg/ml)
Experimental: as §1

[9] = test system: S.marcescens No. 16-2; assay type: cell-based; settings: Serratia marcescens, NO.162; S.marcescens No. 16-2 (β-Lactamase-producing strain); Mueller Hinton agar, inoculum 10⁶ CFU/ml, 37°C, 16 hours; read-out: Minimum Inhibitory Concentration (MIC: µg/ml)
Experimental: as §1

[10] = test system: P.vulgaris No. 33; assay type: cell-based; settings: Proteus vulgaris, read-out: Minimum Inhibitory Concentration (MIC: µg/ml)
Experimental: as §1

[11] = test system: E.cloacae 963; assay type: cell-based; settings: Enterobacter cloacae; E.cloacae 963; Mueller Hinton agar, inoculum 10⁶ CFU/ml, 37°C, 16 hours; read-out: Minimum Inhibitory Concentration (MIC: µg/ml)
Experimental: as §1

[12] = test system: E.coli NIHJ JC2; assay type: cell-based; settings: Escherichia coli, NIHJJC2; E.coli NIHJ JC2; Mueller Hinton agar, inoculum 10⁶ CFU/ml, 37°C, 16 hours; read-out: Minimum Inhibitory Concentration (MIC: µg/ml)
Experimental: as §1

[13] = test system: K.pneumoniae PCI-602; assay type: cell-based; settings: Klebsiella pneumoniae, PCI602; K.pneumoniae PCI-602; Mueller Hinton agar, inoculum 10⁶ CFU/ml, 37°C, 16 hours; read-out: Minimum Inhibitory Concentration (MIC: µg/ml)
Experimental: as §1

[14] = test system: Ps.aeruginosa AKR17; assay type: cell-based; settings: Pseudomonas aeruginosa; Ps.aeruginosa AKR17; Mueller Hinton agar, inoculum 10⁶ CFU/ml, 37°C, 16 hours; read-out: Minimum Inhibitory Concentration (MIC: µg/ml)
Experimental: as §1

[15] = test system: E.cloacae Nek 39; assay type: cell-based; settings: Enterobacter cloacae, NEK39; E.cloacae Nek 39 (β-Lactamase-producing strain); Mueller Hinton agar, inoculum 10⁶ CFU/ml, 37°C, 16 hours; read-out: Minimum Inhibitory Concentration (MIC: µg/ml)
Experimental: as §1

[16] = test system: C.freundii GN346/16; assay type: cell-based; settings: Citrobacter freundii; C.freundii GN346/16; Mueller Hinton agar, inoculum 10⁶ CFU/ml, 37°C, 16 hours; read-out: Minimum Inhibitory Concentration (MIC: µg/ml)
Experimental: as §1

[17] = test system: E.coli GN5482; assay type: cell-based; settings: Escherichia coli; E.coli GN5482 (β-Lactamase-producing strain); Mueller Hinton agar, inoculum 10⁶ CFU/ml, 37°C, 16 hours; read-out: Minimum Inhibitory Concentration (MIC: µg/ml)
Experimental: as §1

[18] = test system: S.aureus 209P NIHJ-JC1; assay type: cell-based; settings: Staphylococcus aureus; S.aureus 209P NIHJ-JC1; Mueller Hinton agar, inoculum 10⁶ CFU/ml, 37°C, 16 hours; read-out: Minimum Inhibitory Concentration (MIC: µg/ml)
Experimental: as §1

[19] = test system: A.calcoaceticus No. 4; assay type: cell-based; settings: Acinetobacter calcoaceticus; A.calcoaceticus No. 4; Mueller Hinton agar, inoculum 10⁶ CFU/ml, 37°C, 16 hours; read-out: Minimum Inhibitory Concentration (MIC: µg/ml)
Experimental: as §1

[20] = test system: M.morganii GN5407; assay type: cell-based; settings: Morganella morganii; M.morganii GN5407 (β-Lactamase-producing strain); Mueller Hinton agar, inoculum 10⁶ CFU/ml, 37°C, 16 hours; read-out: Minimum Inhibitory Concentration (MIC: µg/ml)
Experimental: as §1

[21] = test system: P.vulgaris HX-19; assay type: cell-based; settings: Proteus vulgaris, HX19; P.vulgaris HX-19; Mueller Hinton agar, inoculum 10⁶ CFU/ml, 37°C, 16 hours; read-out: Minimum Inhibitory Concentration (MIC: µg/ml)
Experimental: as §1

[22] = test system: C.freundii GN346; assay type: cell-based; settings: Citrobacter freundii; C.freundii GN346 (β-Lactamase-producing strain); Mueller Hinton agar, inoculum 10⁶ CFU/ml, 37°C, 16 hours; read-out: Minimum Inhibitory Concentration (MIC: µg/ml)
Experimental: as §1

[23] = test system: S.aureus BB5703; assay type: cell-based; settings: Staphylococcus aureus; S.aureus BB5703; Mueller Hinton agar, inoculum 10⁶ CFU/ml, 37°C, 16 hours; read-out: Minimum Inhibitory Concentration (MIC: µg/ml)
Experimental: as §1

[24] = test system: K.pneumoniae No. 42; assay type: cell-based; settings: Klebsiella pneumoniae; K.pneumoniae No. 42 (β-Lactamase-producing strain); Mueller Hinton agar, inoculum 10⁶ CFU/ml, 37°C, 16 hours; read-out: Minimum Inhibitory Concentration (MIC: µg/ml)
Experimental: as §1

[25] = test system: Ps.aeruginosa AK 109; assay type: cell-based; settings: Pseudomonas aeruginosa, AK109; Ps.aeruginosa AK 109; Mueller Hinton agar, inoculum 10⁶ CFU/ml, 37°C, 16 hours; read-out: Minimum Inhibitory Concentration (MIC: µg/ml)
Experimental: as §1

[26] = test system: Ps.cepacia 23; assay type: cell-based, Pseudomonas cepacia; settings: Burkholderia cepacia; Ps.cepacia 23; Mueller Hinton agar, inoculum 10⁶ CFU/ml, 37°C, 16 hours; read-out: Minimum Inhibitory Concentration (MIC: µg/ml)
Experimental: as §1

[27] = test system: Ps.maltophilia GN 12873; assay type: cell-based, Pseudomonas maltophilia; settings: Stenotrophomonas maltophilia, GN12873; Ps.maltophilia GN 12873 (β-Lactamase-producing strain); Mueller Hinton agar, inoculum 10⁶ CFU/ml, 37°C, 16 hours; read-out: Minimum Inhibitory Concentration (MIC: µg/ml)
Experimental: as §1

Structure (SMILES) | MIC [1] [µg/mL] | MIC [2] [µg/mL] | MIC [3] [µg/mL] | MIC [4] [µg/mL] | MIC [6] [µg/mL] | MIC [7] [µg/mL] | MIC [8] [µg/mL] | MIC [9] [µg/mL] | MIC [11] [µg/mL] | MIC [12] [µg/mL] | MIC [13] [µg/mL] | MIC [14] [µg/mL] | MIC [15] [µg/mL] | MIC [16] [µg/mL] | MIC [17] [µg/mL] | MIC [18] [µg/mL] | MIC [19] [µg/mL] | MIC [20] [µg/mL] | MIC [21] [µg/mL] | MIC [22] [µg/mL] | other results
CC(C)(ON=C(C(=O)NC1C(=O)N2C(C(=O)[O-])=C(C[n+]3ccc4ccccc4c3)CSC12)c1csc(N)n1)C(=O)O (stereo not drawn) [Reference Ex. 1, sodium 7-[2-(2-aminothiazol-4-yl)-2-(l-carboxylato-l-methylethoxyimino)acetamido]-3-(2-isoquinolinio)methyl-3-cephem-4-carboxylate, reference compound] | 3.12 | 0.05 | 50 | 0.05 | 1.56 | 0.78 | 0.1 | 1.56 | 0.2 | 0.2 | 0.0125 | 100 | 1.56 | 0.2 | 0.78 | 6.25 | 25 | 0.05 | 0.0125 | 50 | MIC ([5]; K.oxytoca GN10650 (β-Lactamase-producing strain), Mueller Hinton agar, inoculum 10⁶ CFU/ml, 37°C, 16 hours): 0.2 µg/mL; MIC ([10]; P.vulgaris No. 33 (β-Lactamase-producing strain), Mueller Hinton agar, inoculum 10⁶ CFU/ml, 37°C, 16 hours): 0.1 µg/mL; MIC [23]: 25 µg/mL; MIC [24]: 0.39 µg/mL; MIC [25]: 3.12 µg/mL; MIC [26]: 6.25 µg/mL; MIC [27]: 12.5 µg/mL
Nc1nc(/C(=N/OC2(C(=O)O)CCCC2)C(=O)NC2C(=O)N3C(C(=O)[O-])=C(C[n+]4ccc5cc(O)c(O)cc5c4)CSC23)cs1 (stereo not drawn) [Ex. 5, 7-[2-(2-aminothiazol-4-yl)-2-(l-carboxy-l-cyclopentyloxyimino)acetamido]-3-(6,7-dihydroxy-2-isoquinolinio)methyl-3-cephem-4-carboxylate] | 0.39 (≈ 0.596 µM) | < 0.006 | 100 (≈ 153 µM) | 0.0125 (≈ 0.0191 µM) | 6.25 (≈ 9.55 µM) | 3.12 (≈ 4.77 µM) | 0.78 (≈ 1.19 µM) | 0.1 (≈ 0.153 µM) | 0.05 (≈ 0.0764 µM) | 0.05 (≈ 0.0764 µM) | < 0.006 | 0.39 (≈ 0.596 µM) | < 0.006 | 1.56 (≈ 2.38 µM) | 0.2 (≈ 0.305 µM) | 25 (≈ 38.2 µM) | 0.1 (≈ 0.153 µM) | 0.1 (≈ 0.153 µM) | < 0.006 | 50 (≈ 76.4 µM) | MIC ([5]; GN10650, 16 h): 0.0125 µg/mL (≈ 0.0191 µM); MIC ([10]; NO.33, 16 h): 0.0125 µg/mL (≈ 0.0191 µM); MIC [23]: 50 µg/mL (≈ 76.4 µM); MIC [24]: 0.05 µg/mL (≈ 0.0764 µM); MIC [25]: 0.39 µg/mL (≈ 0.596 µM); MIC [26]: < 0.006 µg/mL; MIC [27]: 1.56 µg/mL (≈ 2.38 µM)
